From patent US7332501B2, “Indol-3-yl-carbonyl-spiro-piperidine derivatives as V1a receptor antagonists” (Hoffmann-La Roche Inc., priority 2005, dated 2008)
pKi: −log10 of the molar value. Counter-ions that a name gives are not always drawn.

Biological target: T1, human V1a receptor (Homo sapiens, UniProt P37288)
T1 construct: expressed in transfected cells; host or cells: HEK293 cells, transiently transfected; cell membranes
Experiment: human V1a receptor binding (3H-Vasopressin SPA, HEK293 membranes)
Settings: displacement of 4 nM 3H-Vasopressin, membranes of HEK293 cells transiently transfected with human V1a receptor; Ki from IC50 by Cheng-Prussoff
Experimental: The human V1a receptor was cloned by RT-PCR from total human liver RNA. The coding sequence was subcloned in an expression vector after sequencing to confirm the identity of the amplified sequence. […] Cell membranes were prepared from HEK293 cells transiently transfected with the expression vector and grown in 20 liter fermenters with the following protocol.
50 g cells are resuspended in 30 ml freshly prepared ice cold Lysis buffer (50 mM HEPES, 1 mM EDTA, 10 mM MgCl2 adjusted to pH=7.4+complete cocktail of protease inhibitor (Roche Diagnostics)). The cells are homogenized with Polytron for 1 min and sonicated on ice for 2×2 minutes at 80% intensity (Vibracell sonicator). The preparation is centrifuged 20 min at 500 g at 4° C., the pellet is discarded and the supernatant centrifuged 1 hour at 43,000 g at 4° C. (19,000 rpm). The pellet is resuspended in 12.5 ml Lysis buffer+12.5 ml Sucrose 20% and homogenized using a Polytron for 1-2 min. The protein concentration is determined by the Bradford method and aliquots are stored at −80° C. until use. For binding studies 60 mg Yttrium silicate SPA beads (Amersham) are mixed with an aliquot of membrane in binding buffer (50 mM Tris, 120 mM NaCl, 5 mM KCl, 2 mM CaCl2, 10 mM MgCl2) for 15 minutes with mixing. 50 ul of bead/membrane mixture is then added to each well of a 96 well plate, followed by 50 ul of 4 nM 3H-Vasopressin (American Radiolabeled Chemicals). For total binding measurement 100 ul of binding buffer are added to the respective wells, for non-specific binding 100 ul of […] cold vasopressin and for compound testing 100 ul of a serial dilution of each compound in 2% DMSO. The plate is incubated 1 h at room temperature, centrifuged 1 min at 1000 g and counted on a Packard Top-Count. Non-specific binding counts are subtracted from each well and data is normalized to the maximum specific binding set at 100%. To calculate an IC 50 the curve is fitted using a non-linear regression model (XLfit), and the Ki is calculated using the Cheng-Prussoff equation.

T1 sequence (P37288 whole entry): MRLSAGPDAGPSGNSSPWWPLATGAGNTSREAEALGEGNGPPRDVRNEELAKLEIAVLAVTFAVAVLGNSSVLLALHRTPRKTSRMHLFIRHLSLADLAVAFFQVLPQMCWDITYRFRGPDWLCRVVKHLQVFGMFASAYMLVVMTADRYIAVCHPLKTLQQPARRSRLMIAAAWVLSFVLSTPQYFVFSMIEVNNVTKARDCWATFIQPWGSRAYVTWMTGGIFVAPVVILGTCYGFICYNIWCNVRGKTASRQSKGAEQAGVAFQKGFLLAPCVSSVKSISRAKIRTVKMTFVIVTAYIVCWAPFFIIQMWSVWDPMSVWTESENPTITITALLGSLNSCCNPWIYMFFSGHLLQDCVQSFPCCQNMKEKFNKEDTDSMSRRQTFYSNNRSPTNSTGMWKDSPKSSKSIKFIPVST

Row | pKi | Compound
1 | 7.69 | NC(=O)c1[nH]c2cc(Cl)ccc2c1C(=O)N1CCC2(CC1)OC(=O)c1cc(F)ccc12 [Example 25, 6-chloro-3-[(5-fluoro-3-oxo-1′H,3H-spiro[2-benzofuran-1,4′-piperidin]-1′-yl)carbonyl]-1H-indole-2-carboxamide]
2 | 7.48 | CC1CCN(C(=O)c2[nH]c3cc(Cl)ccc3c2C(=O)N2CCC3(CC2)OC(=O)c2cc(F)ccc23)CC1 [Example 24, 1′-({6-chloro-2-[(4-methylpiperidin-1-yl)carbonyl]-1H-indol-3-yl}carbonyl)-5-fluoro-3H-spiro[2-benzofuran-1,4′-piperidin]-3-one]
3 | 8.09 | O=C(c1c[nH]c2cc(Cl)ccc12)N1CCC2(C=Cc3ccccc32)CC1 [Example 5, 1′-[(6-chloro-1H-indol-3-yl)carbonyl]spiro[indene-1,4′-piperidine]]
4 | 7.40 | O=C1OC2(CCN(C(=O)c3cn(-c4ccccc4-c4ccccc4)c4cc(Cl)ccc34)CC2)c2ccccc21 [Example 157, 1′-[(1-Biphenyl-2-yl-6-chloro-1H-indol-3-yl)carbonyl]-3H-spiro[2-benzofuran-1,4′-piperidin]-3-one]
5 | 8.24 | CCN(CC)C(=O)Cn1cc(C(=O)N2CCC3(CC2)CNc2ccccc23)c2ccc(Cl)cc21 [Example 99, 2-[6-Chloro-3-(1,2-dihydro-1′H-spiro[indole-3,4′-piperidin]-1′-ylcarbonyl)-1H-indol-1-yl]-N,N-diethylacetamide]
6 | 8.29 | O=C(c1cn(C(=O)c2cccc(F)c2)c2cc(Cl)ccc12)N1CCC2(CC1)OCc1ccccc12 [Example 214]
7 | 8.64 | O=C1OC2(CCN(C(=O)c3cn(CC(=O)N4CCOCC4)c4cc(Cl)ccc34)CC2)c2ccccc21 [Example 105, 1′-{[6-Chloro-1-(2-morpholin-4-yl-2-oxoethyl)-1H-indol-3-yl]carbonyl}-3H-spiro[2-benzofuran-1,4′-piperidin]-3-one]
8 | 8.82 | CS(=O)(=O)NCCn1cc(C(=O)N2CCC3(CC2)OCc2ccccc23)c2ccc(Cl)cc21 [Example 271, N-{2-[6-Chloro-3-(1′H,3H-spiro[2-benzofuran-1,4′-piperidin]-1′-ylcarbonyl)-1H-indol-1-yl]ethyl}methanesulfonamide]
9 | 8.59 | Cc1c(C(=O)N2CCC3(CC2)OCc2ccccc23)c2ccccc2n1Cc1ccccc1OC(F)(F)F [Example 48, 1′-({2-methyl-1-[2-(trifluoromethoxy)benzyl]-1H-indol-3-yl}carbonyl)-3H-spiro[2-benzofuran-1,4′-piperidine]]
10 | 9.40 | CN(C)C(=O)Cn1cc(C(=O)N2CCC3(CC2)OC(=O)c2ccccc23)c2ccc(Cl)cc21 [Example 106, 2-{6-Chloro-3-[(3-oxo-1′H,3H-spiro[2-benzofuran-1,4′-piperidin]-1′-yl)carbonyl]-1H-indol-1-yl}-N,N-dimethylacetamide]
11 | 7.60 | O=C(c1cn(Cc2cccnc2)c2cc(Cl)ccc12)N1CCC2(CC1)CNc1ccccc12 [Example 102, 1′-{[6-Chloro-1-(pyridin-3-ylmethyl)-1H-indol-3-yl]carbonyl}-1,2-dihydrospiro[indole-3,4′-piperidine]]
12 | 7.97 | COC(=O)c1ccc(Cn2c(C)c(C(=O)N3CCC4(CC3)OCc3ccccc34)c3ccccc32)cc1 [Example 50, methyl 4-{[2-methyl-3-(1′H,3H-spiro[2-benzofuran-1,4′-piperidin]-1′-ylcarbonyl)-1H-indol-1-yl]methyl}benzoate]
13 | 8.60 | N#CCCn1cc(C(=O)N2CCC3(CC2)OC(=O)c2ccccc23)c2ccc(Cl)cc21 [Example 35, 3-{6-chloro-3-[(3-oxo-1′H,3H-spiro[2-benzofuran-1,4′-piperidin]-1′-yl)carbonyl]-1H-indol-1-yl}propanenitrile]
14 | 8.72 | CNCCn1cc(C(=O)N2CCC3(CC2)OCc2ccccc23)c2ccc(Cl)cc21 [Example 254, 2-[6-Chloro-3-(1′H,3H-spiro[2-benzofuran-1,4′-piperidin]-1′-ylcarbonyl)-1H-indol-1-yl]-N-methylethanamine]
15 | 8.57 | O=C(c1cn(CC2CCNC2)c2cc(Cl)ccc12)N1CCC2(CC1)OCc1ccccc12 (centres unmarked) [Example 266, 1′-{[6-Chloro-1-(pyrrolidin-3-ylmethyl)-1H-indol-3-yl]carbonyl}-3H-spiro[2-benzofuran-1,4′-piperidine]]
16 | 9.10 | O=C(Cn1cc(C(=O)N2CCC3(CC2)OCc2ccccc23)c2ccc(Cl)cc21)N1CCNCC1 [Example 211, 1′-{[6-Chloro-1-(2-oxo-2-piperazin-1-ylethyl)-1H-indol-3-yl]carbonyl}-3H-spiro[2-benzofuran-1,4′-piperidine]]
17 | 8.77 | O=C(c1cn(Cc2cccnc2)c2cc(Cl)ccc12)N1CCC2(CC1)OCc1ccccc12 [Example 230, 1′-{[6-Chloro-1-(pyridin-3-ylmethyl)-1H-indol-3-yl]carbonyl}-3H-spiro[2-benzofuran-1,4′-piperidine]]
18 | 7.60 | O=C(c1cn(S(=O)(=O)c2cc(F)cc(F)c2)c2cc(Cl)ccc12)N1CCC2(CC1)OCc1ccccc12 [Example 218]

Row | Compound | pKi
19 | CC(C)(C)OC(=O)N1CCOC(Cn2cc(C(=O)N3CCC4(CC3)OCc3ccccc34)c3ccc(Cl)cc32)C1 (centres unmarked) [Example 247, tert-Butyl 2-{[6-chloro-3-(1′H,3H-spiro[2-benzofuran-1,4′-piperidin]-1′-ylcarbonyl)-1H-indol-1-yl]methyl}morpholine-4-carboxylate] | 8.64
20 | Cn1cncc1Cn1cc(C(=O)N2CCC3(CC2)OCc2ccccc23)c2ccc(Cl)cc21 [Example 238] | 8.72
21 | O=C1OC2(CCN(C(=O)c3cn(CCC4CCOCC4)c4cc(Cl)ccc34)CC2)c2ccc(F)cc21 [Example 195, 1′-({6-Chloro-1-[2-(tetrahydro-2H-pyran-4-yl)ethyl]-1H-indol-3-yl}carbonyl)-5-fluoro-3H-spiro[2-benzofuran-1,4′-piperidin]-3-one hydrochloride] | 8.68
22 | O=C1OC2(CCN(C(=O)c3cn(Cc4cccc(F)c4)c4cc(Cl)ccc34)CC2)c2ccc(F)cc21 [Example 143, 1′-{[6-Chloro-1-(3-fluorobenzyl)-1H-indol-3-yl]carbonyl}-5-fluoro-3H-spiro[2-benzofuran-1,4′-piperidin]-3-one] | 9.00
23 | O=C1OC2(CCN(C(=O)c3cn(Cc4cccc(F)c4)c4cc(Cl)ccc34)CC2)c2ccccc21 [Example 134, 1′-{[6-Chloro-1-(3-fluorobenzyl)-1H-indol-3-yl]carbonyl}-3H-spiro[2-benzofuran-1,4′-piperidin]-3-one] | 9.00
24 | O=C(c1cn(Cc2cccc(F)c2)c2cc(Cl)ccc12)N1CCC2(CC1)CNc1ccccc12 [Example 94] | 8.39
25 | Cc1c(C(=O)N2CCC3(CC2)OCc2ccccc23)c2ccccc2n1Cc1ccc(C#N)cc1 [Example 51, 4-{[2-methyl-3-(1′H,3H-spiro[2-benzofuran-1,4′-piperidin]-1′-ylcarbonyl)-1H-indol-1-yl]methyl}benzonitrile] | 8.23
26 | O=C(c1cn(Cc2cccc(F)c2)c2cc(Cl)ccc12)N1CCC2(CC1)OCc1ccccc12 [Example 220] | 9.00
27 | O=C1OC2(CCN(C(=O)c3cn(Cc4cc(F)cc(F)c4)c4ccccc34)CC2)c2ccc(F)cc21 [Example 201, 1′-{[1-(3,5-Difluorobenzyl)-1H-indol-3-yl]carbonyl}-5-fluoro-3H-spiro[2-benzofuran-1,4′-piperidin]-3-one] | 8.34
28 | O=C(c1cn(CCn2cccc2)c2cc(Cl)ccc12)N1CCC2(CC1)COc1ccccc12 [Example 86, 1′-({6-chloro-1-[2-(1H-pyrrol-1-yl)ethyl]-1H-indol-3-yl}carbonyl)spiro[1-benzofuran-3,4′-piperidine]] | 7.88
29 | COc1ccc(Cn2c(C)c(C(=O)N3CCC4(CC3)OCc3ccccc34)c3ccccc32)cc1 [Example 55, 1′-{[1-(4-methoxybenzyl)-2-methyl-1H-indol-3-yl]carbonyl}-3H-spiro[2-benzofuran-1,4′-piperidine]] | 8.10
30 | O=C(c1cn(CCN2CCCC2)c2cc(Cl)ccc12)N1CCC2(CC1)COc1ccccc12 [Example 82, 1′-{[6-chloro-1-(2-pyrrolidin-1-ylethyl)-1H-indol-3-yl]carbonyl}spiro[1-benzofuran-3,4′-piperidine]] | 7.89
31 | CN1CCC[C@@H]1Cn1cc(C(=O)N2CCC3(CC2)OCc2ccccc23)c2ccc(Cl)cc21 [Example 269] | 9.00
32 | COCC1(Cn2cc(C(=O)N3CCC4(CC3)OC(=O)c3ccccc34)c3ccc(Cl)cc32)CC1 [Example 192, 1′-[(6-Chloro-1-{[1-(methoxymethyl)cyclopropyl]methyl}-1H-indol-3-yl)carbonyl]-3H-spiro[2-benzofuran-1,4′-piperidin]-3-one] | 8.62
